Measured values: patent US5324502A, “Radiopharmaceuticals for imaging the heart” (priority 1992, dated 1994)
Where two headings read alike, the source gives them in different places.

Assays:
[1] = Octanol/water partition coefficient of radiolabeled gallium complexes; type: physicochemical
Experimental: Octanol/water partition coefficients were measured by vortex mixing 1 mL of 1-octanol and 1 mL of isotonic Tris buffer (pH 7.0) with a 1-5 μL sample of the radiolabeled gallium complex. Following centrifugation at >1200 g for 5 minutes, the octanol and aqueous phases were sampled and counted in an automatic well counter.

[2] = rat
Experimental: The gallium-67 complexes are prepared by ligand exchange from gallium-67 chloride, employing the tris(acetylacetonato)gallium(III) complex as an intermediate. The Ga-67 acetylacetonate in ethanol is reacted with the chelating ligand or ligand precursor at elevated temperature to form rapidly the desired gallium radiopharmaceutical. […] The biodistribution of several radiopharmaceuticals was determined in rats following intravenous injection using techniques previously described (M. A. Green, Nuclear Medicine and Biology 14:59-61, 1987; E. John and M. A. Green, J. Medicinal Chemistry, 33:1764-1770, 1990).
Under ether anesthesia, 1 to 3 μCi (0.1-0.2 mL) of no-carrier-added Ga-67 compound was administered by bolus injection into the femoral vein of male Sprague-Dawley rats. The ether anesthetized rats were sacrificed by decapitation at given time intervals post-injection, organs of interest were removed, weighed, and the gallium-67 activity counted. The biodistribution was calculated as a percentage of the injected dose per gram of tissue and percentage of injected dose per organ for each sample.

COc1ccc([O-])c(C=NCCCNCCNCCCN=Cc2cc(OC)ccc2[O-])c1.[67Ga+3] [(5-MeOSal)2 BAPEN, ^67 GaL^+ L = [bis(5-methoxysalicylaldimino)-N,N'-bis(3-aminopropyl)ethylenediamine]]
log P ([1]; octanol/tris buffer, pH 7): 0.53
% Injected Dose per Gram Tissue, Brain ([2]; in vivo, iv): 0.00 ± 0.00
% injected dose in heart, 1 min ([2]; in vivo, iv): 0.34 ± 0.03 % injected dose
% injected dose in heart, 2 h ([2]; in vivo, iv): 0.23 ± 0.03 % injected dose
% Injected Dose per Gram Tissue, Blood ([2]; in vivo, iv, 1 min): 0.52 ± 0.08
% Injected Dose per Gram Tissue, Brain ([2]; in vivo, iv, 1 min): 0.02 ± 0.01
% Injected Dose per Gram Tissue, Heart ([2]; in vivo, iv, 1 min): 0.46 ± 0.03
% Injected Dose per Gram Tissue, Kidney (one) ([2]; in vivo, iv, 1 min): 9.31 ± 0.32
% Injected Dose per Gram Tissue, Liver ([2]; in vivo, iv, 1 min): 3.01 ± 0.51
% Injected Dose per Gram Tissue, Lungs ([2]; in vivo, iv, 1 min): 0.55 ± 0.14
% Injected Dose per Gram Tissue, Spleen ([2]; in vivo, iv, 1 min): 0.25 ± 0.02
Heart/Blood ([2]; in vivo, iv, 1 min): 0.89 ± 0.12
% Injected Dose per Gram Tissue, Blood ([2]; in vivo, iv, 2 h): 0.08 ± 0.01
% Injected Dose per Gram Tissue, Heart ([2]; in vivo, iv, 2 h): 0.33 ± 0.03
% Injected Dose per Gram Tissue, Kidney (one) ([2]; in vivo, iv, 2 h): 1.57 ± 0.13
% Injected Dose per Gram Tissue, Liver ([2]; in vivo, iv, 2 h): 0.78 ± 0.01
% Injected Dose per Gram Tissue, Lungs ([2]; in vivo, iv, 2 h): 0.16 ± 0.02
% Injected Dose per Gram Tissue, Spleen ([2]; in vivo, iv, 2 h): 0.07 ± 0.01
Heart/Blood ([2]; in vivo, iv, 2 h): 4.33 ± 0.28
% Injected Dose per Gram Tissue, Blood ([2]; in vivo, iv, […]): 0.15 ± 0.04
% Injected Dose per Gram Tissue, Heart ([2]; in vivo, iv, […]): 0.36 ± 0.01
% Injected Dose per Gram Tissue, Kidney (one) ([2]; in vivo, iv, […]): 4.65 ± 1.29
% Injected Dose per Gram Tissue, Liver ([2]; in vivo, iv, […]): 2.09 ± 0.78
% Injected Dose per Gram Tissue, Lungs ([2]; in vivo, iv, […]): 0.22 ± 0.22
% Injected Dose per Gram Tissue, Spleen ([2]; in vivo, iv, […]): 0.09 ± 0.01
Heart/Blood ([2]; in vivo, iv, […]): 2.61 ± 0.55

[67Ga+3].[O-]c1ccccc1C=NCCCNCCNCCCN=Cc1ccccc1[O-] [Sal2 BAPEN, ^67 GaL^+ L = [bis(salicylaldimino)-N,N'-bis(3-aminopropyl)-ethylenediamine]]
log P ([1]; octanol/tris buffer, pH 7): 0.56
% injected dose in heart, 1 min ([2]; in vivo, iv): 0.45 ± 0.01 % injected dose
% injected dose in heart, 2 h ([2]; in vivo, iv): 0.41 ± 0.03 % injected dose
% Injected Dose per Gram Tissue, Blood ([2]; in vivo, iv, 1 min): 0.30 ± 0.01
% Injected Dose per Gram Tissue, Brain ([2]; in vivo, iv, 1 min): 0.02 ± 0.01
% Injected Dose per Gram Tissue, Heart ([2]; in vivo, iv, 1 min): 0.65 ± 0.02
% Injected Dose per Gram Tissue, Kidney (one) ([2]; in vivo, iv, 1 min): 12.39 ± 0.55
% Injected Dose per Gram Tissue, Liver ([2]; in vivo, iv, 1 min): 3.27 ± 0.44
% Injected Dose per Gram Tissue, Lungs ([2]; in vivo, iv, 1 min): 0.85 ± 0.09
% Injected Dose per Gram Tissue, Spleen ([2]; in vivo, iv, 1 min): 0.27 ± 0.03
Heart/Blood ([2]; in vivo, iv, 1 min): 2.15 ± 0.05
% Injected Dose per Gram Tissue, Blood ([2]; in vivo, iv, 2 h): 0.05 ± 0.01
% Injected Dose per Gram Tissue, Brain ([2]; in vivo, iv, 2 h): 0.01 ± 0.003
% Injected Dose per Gram Tissue, Heart ([2]; in vivo, iv, 2 h): 0.58 ± 0.05
% Injected Dose per Gram Tissue, Kidney (one) ([2]; in vivo, iv, 2 h): 1.85 ± 0.30
% Injected Dose per Gram Tissue, Liver ([2]; in vivo, iv, 2 h): 0.64 ± 0.10
% Injected Dose per Gram Tissue, Lungs ([2]; in vivo, iv, 2 h): 0.24 ± 0.03
% Injected Dose per Gram Tissue, Spleen ([2]; in vivo, iv, 2 h): 0.11 ± 0.01
Heart/Blood ([2]; in vivo, iv, 2 h): 12.44 ± 0.42
% Injected Dose per Gram Tissue, Blood ([2]; in vivo, iv, […]): 0.07 ± 0.01
% Injected Dose per Gram Tissue, Brain ([2]; in vivo, iv, […]): 0.01 ± 0.001
% Injected Dose per Gram Tissue, Heart ([2]; in vivo, iv, […]): 0.60 ± 0.03
% Injected Dose per Gram Tissue, Kidney (one) ([2]; in vivo, iv, […]): 4.47 ± 0.62
% Injected Dose per Gram Tissue, Liver ([2]; in vivo, iv, […]): 1.20 ± 0.16
% Injected Dose per Gram Tissue, Lungs ([2]; in vivo, iv, […]): 0.29 ± 0.02
% Injected Dose per Gram Tissue, Spleen ([2]; in vivo, iv, […]): 0.11 ± 0.01
Heart/Blood ([2]; in vivo, iv, […]): 8.34 ± 0.66

^67 GaL^+ L = [(4,6-MeO2 Sal)2 DM-BAPEN, ^67 GaL^+ L = [bis(4,6-dimethoxysalicylaldimino)-N,N'-bis(2,2'-dimethyl-3-aminopropyl)-ethylenediamine]]
log P ([1]; 1-octanol / isotonic Tris buffer pH 7.0): 2.73
% Injected Dose per Gram Tissue, Blood ([2]; i.v., 1 min): 1.30 ± 0.45 % Injected Dose per Gram Tissu
% Injected Dose per Gram Tissue, Brain ([2]; i.v., 1 min): 0.06 ± 0.01 % Injected Dose per Gram Tissu
% Injected Dose per Gram Tissue, Heart ([2]; i.v., 1 min): 1.31 ± 0.17 % Injected Dose per Gram Tissu
% Injected Dose per Gram Tissue, Kidney (one) ([2]; i.v., 1 min): 10.62 ± 0.94 % Injected Dose per Gram Tissu
% Injected Dose per Gram Tissue, Liver ([2]; i.v., 1 min): 5.82 ± 0.93 % Injected Dose per Gram Tissu
% Injected Dose per Gram Tissue, Lungs ([2]; i.v., 1 min): 1.24 ± 0.20 % Injected Dose per Gram Tissu
% Injected Dose per Gram Tissue, Spleen ([2]; i.v., 1 min): 1.59 ± 0.57 % Injected Dose per Gram Tissu
% Injected Dose per Organ, Blood ([2]; i.v., 1 min): 18.76 ± 6.91 % Injected Dose per Organ
% Injected Dose per Organ, Brain ([2]; i.v., 1 min): 0.10 ± 0.02 % Injected Dose per Organ
% Injected Dose per Organ, Heart ([2]; i.v., 1 min): 1.03 ± 0.17 % Injected Dose per Organ
% Injected Dose per Organ, Kidney (one) ([2]; i.v., 1 min): 8.33 ± 0.80 % Injected Dose per Organ
% Injected Dose per Organ, Liver ([2]; i.v., 1 min): 50.62 ± 5.72 % Injected Dose per Organ
% Injected Dose per Organ, Lungs ([2]; i.v., 1 min): 1.63 ± 0.47 % Injected Dose per Organ
% Injected Dose per Organ, Spleen ([2]; i.v., 1 min): 1.07 ± 0.35 % Injected Dose per Organ
% injected dose in heart, 1 min ([2]; i.v., 1 min, preliminary studies): 1.03 ± 0.17 % injected dose
% Injected Dose per Gram Tissue, Blood ([2]; i.v., 15 min): 0.13 ± 0.01 % Injected Dose per Gram Tissu
% Injected Dose per Gram Tissue, Brain ([2]; i.v., 15 min): 0.03 ± 0.01 % Injected Dose per Gram Tissu
% Injected Dose per Gram Tissue, Heart ([2]; i.v., 15 min): 1.23 ± 0.07 % Injected Dose per Gram Tissu
% Injected Dose per Gram Tissue, Kidney (one) ([2]; i.v., 15 min): 10.49 ± 0.92 % Injected Dose per Gram Tissu
% Injected Dose per Gram Tissue, Liver ([2]; i.v., 15 min): 3.92 ± 0.20 % Injected Dose per Gram Tissu
% Injected Dose per Gram Tissue, Lungs ([2]; i.v., 15 min): 0.63 ± 0.03 % Injected Dose per Gram Tissu
% Injected Dose per Gram Tissue, Spleen ([2]; i.v., 15 min): 1.96 ± 0.32 % Injected Dose per Gram Tissu
% Injected Dose per Organ, Blood ([2]; i.v., 15 min): 1.97 ± 0.15 % Injected Dose per Organ
% Injected Dose per Organ, Brain ([2]; i.v., 15 min): 0.04 ± 0.01 % Injected Dose per Organ
% Injected Dose per Organ, Heart ([2]; i.v., 15 min): 0.93 ± 0.04 % Injected Dose per Organ
% Injected Dose per Organ, Kidney (one) ([2]; i.v., 15 min): 8.77 ± 0.60 % Injected Dose per Organ
% Injected Dose per Organ, Liver ([2]; i.v., 15 min): 36.83 ± 2.91 % Injected Dose per Organ
% Injected Dose per Organ, Lungs ([2]; i.v., 15 min): 0.75 ± 0.05 % Injected Dose per Organ
% Injected Dose per Organ, Spleen ([2]; i.v., 15 min): 1.25 ± 0.20 % Injected Dose per Organ
% Injected Dose per Gram Tissue, Blood ([2]; i.v., 120 min): 0.03 ± 0.01 % Injected Dose per Gram Tissu
% Injected Dose per Gram Tissue, Brain ([2]; i.v., 120 min): 0.02 ± 0.01 % Injected Dose per Gram Tissu
% Injected Dose per Gram Tissue, Heart ([2]; i.v., 120 min): 1.36 ± 0.09 % Injected Dose per Gram Tissu
% Injected Dose per Gram Tissue, Kidney (one) ([2]; i.v., 120 min): 6.86 ± 0.54 % Injected Dose per Gram Tissu
% Injected Dose per Gram Tissue, Liver ([2]; i.v., 120 min): 0.42 ± 0.02 % Injected Dose per Gram Tissu
% Injected Dose per Gram Tissue, Lungs ([2]; i.v., 120 min): 0.58 ± 0.06 % Injected Dose per Gram Tissu
% Injected Dose per Gram Tissue, Spleen ([2]; i.v., 120 min): 1.59 ± 0.16 % Injected Dose per Gram Tissu
% Injected Dose per Organ, Blood ([2]; i.v., 120 min): 0.45 ± 0.03 % Injected Dose per Organ
% Injected Dose per Organ, Brain ([2]; i.v., 120 min): 0.04 ± 0.01 % Injected Dose per Organ
% Injected Dose per Organ, Heart ([2]; i.v., 120 min): 0.01 ± 0.06 % Injected Dose per Organ
% Injected Dose per Organ, Kidney (one) ([2]; i.v., 120 min): 5.40 ± 0.24 % Injected Dose per Organ
% Injected Dose per Organ, Liver ([2]; i.v., 120 min): 3.91 ± 0.19 % Injected Dose per Organ
% Injected Dose per Organ, Lungs ([2]; i.v., 120 min): 0.64 ± 0.06 % Injected Dose per Organ
% Injected Dose per Organ, Spleen ([2]; i.v., 120 min): 0.97 ± 0.07 % Injected Dose per Organ
% injected dose in heart, 2 h ([2]; i.v., 2 h, preliminary studies): 1.01 ± 0.06 % injected dose
Heart/Blood ([2]; ratio, i.v., 1 min): 1.11 ± 0.40
Heart/Liver ([2]; ratio, i.v., 1 min): 0.23 ± 0.06
Heart/Lungs ([2]; ratio, i.v., 1 min): 1.07 ± 0.12
Heart/Blood ([2]; ratio, i.v., 15 min): 9.65 ± 0.53
Heart/Liver ([2]; ratio, i.v., 15 min): 0.32 ± 0.02
Heart/Lungs ([2]; ratio, i.v., 15 min): 1.96 ± 0.20
Heart/Blood ([2]; ratio, i.v., 120 min): 44.46 ± 1.63
Heart/Liver ([2]; ratio, i.v., 120 min): 3.24 ± 0.07
Heart/Lungs ([2]; ratio, i.v., 120 min): 2.34 ± 0.14
